{"source": "ChEMBL document CHEMBL1125472", "about": "“5-lipoxygenase: properties, pharmacology, and the quinolinyl(bridged)aryl class of inhibitors” (J Med Chem, 1992)", "key": {"Cavia porcellus": {"species": "Cavia porcellus", "assay": "The effective dose which inhibits UVB-induced guinea pig skin erythema", "type": "functional"}, "Mus musculus [1]": {"species": "Mus musculus", "assay": "The effective dose which inhibits […] induced contact hypersensitivity in mouse ears", "type": "functional"}, "Mus musculus [2]": {"species": "Mus musculus", "assay": "Compound was tested for tetradecanoylphorbol acetate (TPA) induced inflammation at concentration of 1 mg/ear in mouse", "type": "functional"}, "[3]": {"target": "T1, Polyunsaturated fatty acid 5-lipoxygenase (Mus musculus, UniProt P48999)", "T1 sequence (P48999 whole entry)": "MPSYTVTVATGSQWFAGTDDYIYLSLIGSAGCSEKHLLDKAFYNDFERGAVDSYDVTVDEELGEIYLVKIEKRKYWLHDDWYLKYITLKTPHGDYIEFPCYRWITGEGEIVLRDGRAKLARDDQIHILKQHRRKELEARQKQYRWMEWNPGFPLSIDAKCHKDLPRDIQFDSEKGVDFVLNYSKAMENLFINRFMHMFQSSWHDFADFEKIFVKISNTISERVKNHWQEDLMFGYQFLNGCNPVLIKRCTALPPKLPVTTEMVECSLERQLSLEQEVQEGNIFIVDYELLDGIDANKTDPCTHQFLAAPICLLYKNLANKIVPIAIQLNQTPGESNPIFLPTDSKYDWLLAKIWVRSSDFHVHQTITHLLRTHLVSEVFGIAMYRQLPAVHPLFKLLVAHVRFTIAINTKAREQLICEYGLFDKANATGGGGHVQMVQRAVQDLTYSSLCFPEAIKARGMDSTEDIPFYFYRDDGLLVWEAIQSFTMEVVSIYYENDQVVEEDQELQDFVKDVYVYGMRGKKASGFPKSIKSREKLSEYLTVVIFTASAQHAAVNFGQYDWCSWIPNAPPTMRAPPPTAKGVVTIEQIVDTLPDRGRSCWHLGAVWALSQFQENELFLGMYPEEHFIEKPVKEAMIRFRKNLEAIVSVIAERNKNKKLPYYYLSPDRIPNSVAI", "assay": "The compound was tested for inhibitory activity against 5-lipoxygenase in mouse macrophages"}, "[4]": {"target": "T2, Polyunsaturated fatty acid 5-lipoxygenase (Rattus norvegicus) (UniProt P12527)", "T2 sequence (whole entry)": "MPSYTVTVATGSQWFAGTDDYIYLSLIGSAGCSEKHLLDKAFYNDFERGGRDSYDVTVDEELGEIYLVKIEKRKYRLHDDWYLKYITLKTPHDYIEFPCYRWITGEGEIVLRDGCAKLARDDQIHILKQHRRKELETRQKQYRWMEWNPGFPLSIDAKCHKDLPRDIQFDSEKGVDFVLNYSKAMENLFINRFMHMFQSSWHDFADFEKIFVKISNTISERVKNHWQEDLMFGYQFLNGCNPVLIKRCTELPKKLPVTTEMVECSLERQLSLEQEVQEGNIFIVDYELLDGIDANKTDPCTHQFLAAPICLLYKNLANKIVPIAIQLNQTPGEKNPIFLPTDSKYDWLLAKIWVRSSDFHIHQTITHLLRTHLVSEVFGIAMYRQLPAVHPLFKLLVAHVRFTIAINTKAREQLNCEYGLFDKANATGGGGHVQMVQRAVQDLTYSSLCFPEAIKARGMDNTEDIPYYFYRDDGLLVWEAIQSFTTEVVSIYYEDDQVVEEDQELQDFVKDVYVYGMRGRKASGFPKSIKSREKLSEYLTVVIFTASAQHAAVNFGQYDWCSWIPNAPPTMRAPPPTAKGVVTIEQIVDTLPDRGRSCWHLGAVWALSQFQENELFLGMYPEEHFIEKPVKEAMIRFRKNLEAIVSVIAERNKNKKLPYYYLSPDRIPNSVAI", "assay": "The compound was tested for inhibition of 5-lipoxygenase in rat RBL-2H3 cells", "type": "cell-based"}, "[5]": {"target": "T3, Polyunsaturated fatty acid 5-lipoxygenase (Rattus norvegicus, UniProt P12527)", "T3 sequence (P12527 whole entry)": "T2 sequence (whole entry)", "assay": "The compound was tested for inhibitory activity against 5-lipoxygenase in rat polymorphonuclear leukocytes[PMNS]", "type": "cell-based"}, "Mus musculus [6]": {"species": "Mus musculus", "assay": "The effective dose which inhibits […](AA) and tetradecanoylphorbol acetate(TPA) induced inflammation", "type": "functional"}, "RBL-2H3": {"test_system": "RBL-2H3", "assay": "The compound was tested for inhibition LTC4 synthesis in RBL-2H3 Cells", "type": "functional, Rattus norvegicus"}, "Cyclooxygenase": {"target": "T4, Cyclooxygenase (Rattus norvegicus, UniProt P35355+Q63921)", "T4 sequence (P35355 whole entry)": "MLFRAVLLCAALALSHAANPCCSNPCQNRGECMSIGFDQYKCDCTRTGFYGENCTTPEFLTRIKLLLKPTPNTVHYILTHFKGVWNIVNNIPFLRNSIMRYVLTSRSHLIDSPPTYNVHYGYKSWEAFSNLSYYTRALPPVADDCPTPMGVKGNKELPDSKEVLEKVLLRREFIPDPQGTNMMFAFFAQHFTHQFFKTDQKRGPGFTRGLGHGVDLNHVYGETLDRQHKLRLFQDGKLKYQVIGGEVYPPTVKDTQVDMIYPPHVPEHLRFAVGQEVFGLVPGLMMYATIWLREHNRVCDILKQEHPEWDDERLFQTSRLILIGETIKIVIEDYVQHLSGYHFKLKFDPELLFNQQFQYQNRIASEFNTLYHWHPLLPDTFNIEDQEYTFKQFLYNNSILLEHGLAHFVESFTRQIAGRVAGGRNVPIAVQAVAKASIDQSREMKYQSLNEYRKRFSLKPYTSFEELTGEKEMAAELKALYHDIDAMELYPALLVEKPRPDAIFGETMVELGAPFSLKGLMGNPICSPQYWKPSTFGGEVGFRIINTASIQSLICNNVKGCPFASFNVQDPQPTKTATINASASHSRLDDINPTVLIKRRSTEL", "T4 sequence (Q63921 whole entry)": "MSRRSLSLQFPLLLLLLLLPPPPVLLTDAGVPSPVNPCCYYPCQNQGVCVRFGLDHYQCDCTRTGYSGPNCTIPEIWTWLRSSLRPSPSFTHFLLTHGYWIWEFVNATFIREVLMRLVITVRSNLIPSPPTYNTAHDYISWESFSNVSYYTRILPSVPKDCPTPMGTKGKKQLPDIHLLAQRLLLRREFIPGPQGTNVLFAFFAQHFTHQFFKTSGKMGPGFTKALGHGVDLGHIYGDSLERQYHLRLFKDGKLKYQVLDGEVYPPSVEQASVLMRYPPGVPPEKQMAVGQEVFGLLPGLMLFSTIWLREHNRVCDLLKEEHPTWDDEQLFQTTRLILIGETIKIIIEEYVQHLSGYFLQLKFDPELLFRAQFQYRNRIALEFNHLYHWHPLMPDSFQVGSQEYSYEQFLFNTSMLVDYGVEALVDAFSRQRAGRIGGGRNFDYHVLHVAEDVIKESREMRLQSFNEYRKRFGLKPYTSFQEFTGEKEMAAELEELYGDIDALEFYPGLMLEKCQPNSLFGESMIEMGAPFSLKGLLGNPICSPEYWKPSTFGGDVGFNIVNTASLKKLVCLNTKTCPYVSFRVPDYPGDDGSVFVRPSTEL", "assay": "The compound was tested for inhibitory activity against cyclooxygenase in rat polymorphonuclear leukocytes[PMNS]", "type": "cell-based"}, "[7]": {"target": "T2, Polyunsaturated fatty acid 5-lipoxygenase (Rattus norvegicus)", "assay": "The compound was tested for inhibition of 5-lipoxygenase translocation in SAR in rat RBL-2H3 cells", "type": "cell-based"}}}
{"smiles": "c1ccc2nc(COc3cccc4ccccc34)ccc2c1", "values": [{"measurement": "ED50", "setting": "Cavia porcellus", "result": 0.25, "unit": "mg/spot"}, {"measurement": "ED50", "setting": "Mus musculus [1]", "result": 0.4, "unit": "mg ear-1"}, {"measurement": "Inhibition", "setting": "Mus musculus [2]", "result": 40, "unit": "%"}, {"measurement": "IC50", "setting": "[3]", "result": 200, "unit": "nM"}, {"measurement": "Inhibition", "setting": "[4]", "result": "> 10", "unit": "µM"}, {"measurement": "IC50", "setting": "[5]", "result": 400, "unit": "nM"}, {"measurement": "ED50", "setting": "Mus musculus [6]", "result": 0.3, "unit": "mg ear-1"}, {"measurement": "Inhibition", "setting": "RBL-2H3", "result": 450, "unit": "nM"}, {"measurement": "IC50", "setting": "Cyclooxygenase", "result": 6300, "unit": "nM"}, {"measurement": "Inhibition", "setting": "[7]", "result": 500, "unit": "nM"}]}
